From patent EP1914236A1 (Ortho-McNeil Pharmaceutical, Inc., priority 2002, dated 2003)
Where two headings read alike, the source gives them in different places.

Columns and labels:
[1] = Graded Abdominal Irritant Test (GrAIT); format: in vivo; conditions: for % Inhibition: 30 minutes before kaolin (100 mg/kg intraperitoneally), responses counted for 15 minutes, dose not given; for ED50: log dose regression analysis
Experimental: The Graded Abdominal Irritant Test (GrAIT) is a modification of the methods described by Koster et al. (Koster R., Anderson M and DeBeer E. J. Fed. Proc. 1959, 18, 412). Prior to the test (30 minutes for oral or subcutaneous administration), each animal was administered a known analgesic, a test compound, or vehicle (0.05N HCl) by one of two routes (oral or subcutaneous).
Kaolin (100 mg/kg) was injected intraperitoneally (using a standard 23G needle) at a volume of 10mL/kg of body weight. Following the administration of the chemical agent, the animals were placed in glass bell jars (approximately 15cm in diameter with wood chips on the bottom). […] A contraction of the abdominal musculature and an elongation of the body, which extends through to the hindlimbs, characterize this response. The responses were counted during the 15-minute time period after the injection of the kaolin. A mechanical counter or a personal computer was used to collect the number of counts per animal, and animals were observed no more than 5 at a time.
The mean number of counts (±SEM) for a group of animals receiving a known analgesic or test compound was compared to the mean for the group of animals which received only vehicle pretreatment (Control group). For each dose, % inhibition of the response was calculated. For each test compound, the EDso value was calculated using a log dose regression analysis program (PharmTools software).

[2] = target: T1, human B2 bradykinin receptors (Homo sapiens, UniProt P30411); assay: Bradykinin B2 (BK2) Receptor Binding Assay
T1 construct: purchased Receptor Biology, Inc. (Baltimore, MD); host or cells: CHO-K1 cells transfected with the human B2 receptor (membranes)
T1 sequence (P30411 1-391): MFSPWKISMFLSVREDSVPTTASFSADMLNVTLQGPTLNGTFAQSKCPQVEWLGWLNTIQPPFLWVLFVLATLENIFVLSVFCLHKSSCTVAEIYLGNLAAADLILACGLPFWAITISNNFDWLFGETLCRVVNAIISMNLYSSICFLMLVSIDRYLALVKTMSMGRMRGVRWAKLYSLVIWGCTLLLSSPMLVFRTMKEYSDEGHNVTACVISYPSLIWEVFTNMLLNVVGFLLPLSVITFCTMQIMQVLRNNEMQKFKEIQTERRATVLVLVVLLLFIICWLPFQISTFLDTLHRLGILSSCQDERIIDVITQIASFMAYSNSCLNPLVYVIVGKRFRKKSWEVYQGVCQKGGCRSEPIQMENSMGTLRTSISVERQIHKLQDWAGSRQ
In short: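 Membranes came from CHO-K1 cells expressing human B2 receptors; bound radioligand was collected by filtration and washed with cold 10 mM HEPES, pH 7.5. Single concentrations gave % inhibition of specific binding, and concentration ranges gave Ki values.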

CHO-hB2 cell membranes = target: T2, CHO-hB2 cell membranes (Homo sapiens, UniProt P30411); assay: [35S]GTPγS Binding Assay in CHO-hB2 Cell Membranes; format: biochemical
T2 construct: purchased Receptor Biology, Inc. (Baltimore, MD); host or cells: CHO-hB2 cells (membranes)
T2 sequence (P30411 1-391): T1 sequence (P30411 1-391)
Experimental: CHO-hB2 cell membranes were purchased from Receptor Biology, Inc. (Baltimore,MD). 10 mg/mL of membrane protein was suspended in 10 mM TRIS-HC pH 7.2, 2 mM EDTA, 10% sucrose.
Membranes were added into 15 mL ice cold binding assay buffer. The assay buffer contained 50 mM HEPES, pH 7.6, 5 mM MgCl2, 100 mM NaCl, 1 mM DTT and 1 mM EDTA. The membrane suspension was homogenized twice with a Polytron and centrifuged at 3000 rpm for 10 min. The supernatant was then centrifuged at 18,000 rpm for 20 min. The pellet was saved in a tube and resuspended.
The pellet membranes (40 µg/mL) were preincubated with SPA (scintillation proximity assay) beads (20 mg/mL) at 25C° for 45 min in the assay buffer. The SPA beads (5 mg/mL) coupled with membranes (10 µg/mL) were then incubated with 0.5 nM [^35S]GTPγS in the same HEPES buffer containing 50 µM GDP in total volume of 200 µL. Bradykinin was used to stimulate [^35S]GTPγS binding. Varying concentrations of drugs were incubated with bradykinin to inhibit bradykinin-stimulated [^35S]GTPγS binding. The basal binding was tested in the absence of bradykinin and no specific binding was tested in the present 10 µM unlabeled GTPγS. The radioactivity was quantified on a Packard Top Count, and calculated. % of Basal = (stimulated binding-non specific binding)/(basal binding-non specific binding) × 100. [formula]

[3] = membranes of CHO-K1 cells transfected with human B2 bradykinin receptors, ~0.25 nM [3H]NPC17731, 60 min at 25°C
[4] = number in parentheses, bradykinin-stimulated [35S]GTPγS binding, test concentration not given
[5] = word part of the cell, effect on bradykinin-stimulated [35S]GTPγS binding

SMILES	% Inhibition ([1]; po)	% Inhibition ([1]; sc) [%]	Ki [2, 3] [nM]	Functional Activity (% Basal) (CHO-hB2 cell membranes; [4])	Functional Activity (CHO-hB2 cell membranes; [5])	ED50 ([1]; po) [µmol/kg]	Functional Activity (CHO-hB2 cell membranes)	Functional Activity (% Basal) (CHO-hB2 cell membranes)	Ki [2] [nM]
CCn1c(CC(=O)N(C)c2ccc(C)c(COc3cccc4ccc(C)nc34)c2C)ccc1C(=O)c1ccc(C#N)cc1 [Compound 7]	26%	42	48	–	–	–	–	–	–
CCn1c(CC(=O)N(C)c2ccc(Cl)c(COc3cccc4ccc(C)nc34)c2Cl)ccc1C(=O)c1ccc(C#N)cc1 [Compound 8]	-11%	44	13	40	Antagonist	–	–	–	–
CCN(C(=O)Cc1ccc(C(=O)c2ccc(C#N)cc2)n1C)c1ccc(C)c(COc2cccc3ccc(C)nc23)c1C [Compound 16]	46%	58	132	1	No effect	–	–	–	–
CCN(C(=O)Cc1ccc(C(=O)c2ccc(Cl)nc2)n1C)c1ccc(Cl)c(COc2cccc3ccc(C)nc23)c1Cl [Compound 17]	-1%	47	342	1	No effect	–	–	–	–
Cc1ccc2cccc(OCc3c(Cl)ccc(N(C)C(=O)Cc4ccc(C(=O)c5ccncc5)n4C)c3Cl)c2n1 [Compound 60, N-[2,4-Dichloro-3-(2-methyl-quinolin-8-yloxymethyl)-phenyl]-N-methyl-2-[1-methyl-5-(pyridine-4-carbonyl)-1 H-pyrrol-2-yl]-acetamide]	44po %	–	400	–	–	–	–	–	–
Cc1ccc2cccc(OCc3c(Cl)ccc(N(C)C(=O)Cc4ccc(C(=O)c5ccc(Cl)nc5)n4C)c3Cl)c2n1 [Compound 67, 2-[5-(6-Chloro-pyridine-3-carbonyl)-1-methyl-1H-pyrrol-2-yl]-N-[2,4-dichloro-3-(2-methyl-quinolin-8-yloxymethyl)-phenyl]-N-methyl-acetamide]	78%	100	194	55	Antagonist	68.8	–	–	–
CC(=O)Nc1ccc(C(=O)c2ccc(CC(=O)N(C)c3ccc(Cl)c(COc4cccc5ccc(C)nc45)c3Cl)n2C)cc1 [Compound 74, 2-[5-(4-Acetylamino-benzoyl)-1-methyl-1 H-pyrrol-2-yl]-N-[2,4-dichloro-3-(2-methyl-quinolin-8-yloxymethyl)-phenyl]-N-methyl-acetamide]	-6%	88	68	33	Antagonist	–	–	–	–
Cc1ccc2cccc(OCc3c(Cl)ccc(N(C)C(=O)Cc4ccc(C(=O)c5ccc(S(C)(=O)=O)cc5)n4C)c3Cl)c2n1 [Compound 75, N-[2,4-Dichloro-3-(2-methyl-quinolin-8-yloxymethyl)-phenyl]-2-[5-(4-methanesulfonyl-benzoyl)-1-methyl-1 H-pyrrol-2-yl]-N-methyl-acetamide]	50%	93.3	47	73	Antagonist	–	–	–	–
Cc1ccc2cccc(OCc3c(Cl)ccc(N(C)C(=O)Cc4ccc(C(=O)c5ccc(C#N)cc5)n4C)c3Cl)c2n1 [Compound 76]	22%	100	41	79	Antagonist	–	–	–	–
Cc1ccc2cccc(OCc3c(C)ccc(N(C)C(=O)Cc4ccc(C(=O)c5ccc(Cl)nc5)n4C)c3C)c2n1 [Compound 77]	70 po %	–	306	62	Antagonist	80.9	–	–	–
Cc1ccc2cccc(OCc3c(C)ccc(N(C)C(=O)Cc4ccc(C(=O)c5ccc(C#N)nc5)n4C)c3C)c2n1 [Compound 78]	82 po %	–	286	83	Antagonist	114	–	–	–
Cc1ccc2cccc(OCc3c(C)ccc(N(C)C(=O)Cc4ccc(C(=O)c5ccc(C#N)cc5)n4C)c3C)c2n1 [Compound 79, 2-[5-(4-Cyano-benzoyl)-1-methyl-1H-pyrrol-2-yl]-N-[2,4-dimethyl-3-(2-methyl-quinolin-8-yloxymethyl)-phenyl]-N-methyl-acetamide]	68 po %	–	69	100	Antagonist	61.3	–	–	–
Cc1ccc2cccc(OCc3c(C)ccc(N(C)C(=O)CCc4ccc(C(=O)c5ccc(Cl)nc5)n4C)c3C)c2n1 [Compound 88]	-24%	96	126	41	Antagonist	–	–	–	–
Cc1ccc2cccc(OCc3c(Cl)ccc(N(C)C(=O)CCc4ccc(C(=O)c5ccc(Cl)nc5)n4C)c3Cl)c2n1 [Compound 89]	98po %	–	57	51	Antagonist	22.5	–	–	–
Cc1ccc2cccc(OCc3c(C)ccc(N(C)C(=O)CCc4ccc(C(=O)c5ccc(C#N)cc5)n4C)c3C)c2n1 [Compound 90]	45%	100	46	50	Antagonist	–	–	–	–
Cc1ccc2cccc(OCc3c(Cl)ccc(N(C)C(=O)CCc4ccc(C(=O)c5ccc(C#N)cc5)n4C)c3Cl)c2n1 [Compound 91]	23%	97.4	–	–	–	–	Antagonist (58)	Antagonist (58) % Basal	15
